Data set [1] relates to Laodelphax striatellus. As to the kind of experiment: Drug penetration inLaodelphax striatella N (small brown planthopper) at 0.1 ng/insect treated topically after 1 hr. The conditions noted are these: in vivo, topical_or_ocular. The class given is ADME, organism-based.
Data set [2] has as its system Laodelphax striatellus. As to the kind of experiment: Drug penetration inLaodelphax striatella S (small brown planthopper) at 0.1 ng/insect treated topically after 1 hr. The class given is ADME, organism-based. The note with it: in vivo, topical_or_ocular.
The test system of data set [3] is Laodelphax striatellus. As to the kind of experiment: Insecticidal activity againstLaodelphax striatella S (small brown planthopper) treated topically after 24 hr. The class given is functional. The conditions noted are these: topical.
Data set [4] concerns Laodelphax striatellus. As to the kind of experiment: Insecticidal activity againstLaodelphax striatella N (small brown planthopper) treated topically after 24 hr in presence of 20 ng/insect of […]. The class given is functional. The note with it: topical.
The test system of data set [5] is Laodelphax striatellus. As to the kind of experiment: Insecticidal activity againstLaodelphax striatella N (small brown planthopper) treated topically after 24 hr in presence of 2 ng/insect of tributylphosportrithioate. The class given is functional. The note with it: topical.
Data set [6] relates to Laodelphax striatellus. In words: Insecticidal activity againstLaodelphax striatella N (small brown planthopper) treated topically after 24 hr in presence of 40 ng/insect of piperonylbutoxide. It is filed as functional. The note with it: topical.
Data set [7] has as its system Laodelphax striatellus. As to the kind of experiment: Insecticidal activity againstLaodelphax striatella N (small brown planthopper) treated topically after 24 hr. The class given is functional. The conditions noted are these: topical.

Take `O=[N+]([O-])NC1=NCCN1Cc1ccc(Cl)nc1` [IMIDACLOPRID]: the Drug uptake with Laodelphax striatellus [1] and in the data set with Laodelphax striatellus [2] was 20% each time. For the same molecule, the LD50 (commonly the dose expected to kill half of the subjects tested) in the data set with Laodelphax striatellus [3] amounted to 0.12 mg/kg; in the data set with Laodelphax striatellus [4], 1.19 mg/kg; with Laodelphax striatellus [5] it was 1.06 mg/kg; in the data set with Laodelphax striatellus [6], 1.11 mg/kg; in the data set on Laodelphax striatellus [7], 2.17 mg/kg.
